Where two headings read alike, the source gives them in different places.
How the values were obtained:
[1] = test system: gel-filtered human platelets; experiment: ADP-stimulated/ADP-mediated platelet aggregation inhibition (Chronolog aggregometer); format: cell-based
Method: Platelet aggregation is measured at 37° C. in a Chronolog aggregometer. The reaction mixture contains gel-filtered human platelets (2×10^8 per ml), fibrinogen (100 micrograms per ml (ug/ml)), Ca^2 + (1 mM), and the compound to be tested. The aggregation is initiated by adding 10 μM ADP 1 minute after the other components are added. The reaction is then allowed to proceed for at least 2 minutes. The extent of inhibition of aggregation is expressed as the percentage of the rate of aggregation observed in the absence of inhibitor. The IC50 is the dose of a particular compound inhibiting aggregation by 50% relative to a control lacking the compound.
In addition to the following preparative procedures, several examples of in-vitro bioactivity of compounds within the scope of the present invention are indicated. To illustrate, one test which is used to evaluate fibrinogen receptor antagonist activity is based on evaluation of inhibition of ADP-stimulated platelets. Aggregation requires that fibrinogen bind to and occupy the platelet fibrinogen receptor site. Inhibitors of fibrinogen binding inhibit aggregation. In the ADP-stimulated platelet aggregation assay used to determine inhibition associated with the compounds claimed in the instant invention, human platelets are isolated from fresh blood, collected into acid citrate/dextrose by differential centrifugation followed by gel filtration on Sepharose 2B in divalent ion-free Tyrode's buffer (pH 7.4) containing 2% bovine serum albumin. [drawing 11]

[2] = test system: cell attachment-promoting effects of fibronectin and vitronectin; conditions: background statement; cited from earlier work
gpIIb/IIIa complex = conditions: snake venom polypeptides; literature; cited from earlier work
[3] = Homo sapiens, Platelet, table 2, "Using the methods previously described", read-out: IC50 (μM) Inhibition of Platelet Aggregation
[4] = Platelet, gel-filtered human platelets 2×10^8 per ml, fibrinogen 100 ug/ml, Ca2+ 1 mM, 10 μM ADP, 37° C., table 1, read-out: IC50 for inhibition of ADP-mediated platelet aggregation
[5] = gel-filtered human platelets 2×10^8 per ml, fibrinogen 100 ug/ml, Ca2+ 1 mM, 10 μM ADP, 37° C., table 1, read-out: IC50 for inhibition of ADP-mediated platelet aggregation

Q: With `Cc1ccc(C(=O)NCCC2CCNCC2)cc1C(=O)NCCC(=O)O` as the compound, how does the IC50 [1, 3] read?
A: 0.45 µM

Q: Which IC50 [1, 4] does the source give for `O=C(O)CCNC(=O)CCc1ccc(C2CCNCC2)cc1` [4-(Piperidin-4-yl)phenyl-3-propionyl-β-alanine] here?
A: 11 µM

Q: For `O=C(NC[C@H](NS(=O)(=O)c1ccccc1)C(=O)O)c1ccc(OCCN2CCNCC2)cc1`, which IC50 [1, 3] is on record?
A: 0.023 µM

Q: Which IC50 [1, 5] does the source give for `O=C(O)CC(CCc1c[nH]c2ccccc12)NC(=O)Cc1cccc(OCC2CCNCC2)c1` (centres unmarked) [3-[(4-Piperidinyl)methyloxy]-N-[3-(2-indol-3-yl)ethyl Propionic Acid]-phenyl Acetamide] here?
A: 5.2 µM

Q: Which IC50 [1, 3] does the source give for `O=C(NC[C@H](NS(=O)(=O)c1ccccc1)C(=O)O)c1ccc(OCCCC2CNC2)cc1` here?
A: 0.01 µM

Q: With `CCCCS(=O)(=O)N[C@@H](CNC(=O)c1cccc(C(=O)N(C)CCC2CCNCC2)c1)C(=O)O` as the compound, how does the IC50 [1, 3] read?
A: 0.023 µM

Q: With `O=C(NCCCC1CCNCC1)c1ccc(C(=O)NC[C@H](NS(=O)(=O)c2cccnc2)C(=O)O)cc1` as the compound, how does the IC50 [1, 3] read?
A: 0.052 µM

Q: With `CCCCS(=O)(=O)N[C@@H](CNC(=O)c1cc(C(=O)NCCC2CCNCC2)ccc1C)C(=O)O` as the compound, how does the IC50 [1, 3] read?
A: 0.15 µM

Q: For `O=C(NCCC1CCNCC1)c1ccc(C(=O)NC[C@H](NS(=O)(=O)c2cccnc2)C(=O)O)cc1`, which IC50 [1, 3] is on record?
A: 0.017 µM

Q: For `CCCCS(=O)(=O)N[C@@H](Cc1ccc(NC(=O)CCCC2CCNCC2)cc1)C(=O)O` [4-(4-Piperidin-4-yl)-N-3[2(S)-n-butylsulfonylaminopropionic acid]-phenylbutyramide], which IC50 [1, 5] is on record?
A: 0.095 µM

Q: Which IC50 [1, 4] does the source give for `CCCCS(=O)(=O)N[C@@H](CNC(=O)CCc1ccc(C2CCNCC2)cc1)C(=O)O` [4-(Piperidin-4-yl)phenyl-3-propionyl-[2(S)-n-butyl-sulfonylamino]-β-alanine] here?
A: 0.1 µM

Q: For `CCCCS(=O)(=O)N[C@@H](CNC(=O)c1cncc(C(=O)NCCC2CCNCC2)c1)C(=O)O`, which IC50 [1, 3] is on record?
A: 0.11 µM

Q: With `O=C(NC[C@H](NS(=O)(=O)c1cccnc1)C(=O)O)c1ccc(OCCC2CCNCC2)cc1` as the compound, how does the IC50 [1, 3] read?
A: 0.009 µM

Q: Which IC50 [1, 4] does the source give for `O=C(NC[C@H](NS(=O)(=O)c1ccccc1)C(=O)O)c1ccc(OCCC2CCNCC2)cc1` [4-[2-(Piperidin-4-yl)ethoxy]benzoyl-2(S)-phenylsulfonylamino-β-alanine] here?
A: 0.014 µM

Q: With `O=C(NC[C@H](NS(=O)(=O)c1ccccc1)C(=O)O)c1ccc(S(=O)(=O)CCC2CCNCC2)cc1` as the compound, how does the IC50 [1, 3] read?
A: 0.019 µM

Q: For `O=C(O)CCNC(=O)Cc1cccc(OCC2CCNCC2)c1` [3-[(4-Piperidinyl)methyloxy]-N-(2-carboxyethyl)phenyl Acetamide], which IC50 [1, 4] is on record?
A: 56 µM

Q: For `O=C(NC[C@H](NS(=O)(=O)c1ccccc1)C(=O)O)c1cccc(OCCCC2CCNCC2)c1`, which IC50 [1, 3] is on record?
A: 0.056 µM

Q: With `CCCCS(=O)(=O)N[C@@H](CNC(=O)c1ccc(C(=O)NCC2CCNCC2)cc1)C(=O)O` as the compound, how does the IC50 [1, 3] read?
A: 0.14 µM

Q: For `O=C(O)CCNC(=O)c1ccnc(C(=O)NCCC2CCNCC2)c1`, which IC50 [1, 3] is on record?
A: 1.6 µM

Q: Which “activity of the tripeptide Arg-Gly-Asp” value [2] does the source give for “arginine-glycine-aspartic acid [Arg-Gly-Asp]” here?
A: low activity

Q: With `O=C(NC[C@H](NS(=O)(=O)c1ccccc1)C(=O)O)c1ccc(OCCC2CNC2)cc1` as the compound, how does the IC50 [1, 3] read?
A: 0.017 µM

Q: Which “affinity for the gpIIb/IIIa complex” value (gpIIb/IIIa complex) does the source give for Echistatin here?
A: high affinity

Q: With `O=C(NC[C@H](NS(=O)(=O)c1ccccc1)C(=O)O)c1ccc(NCCC2CCNCC2)cc1` as the compound, how does the IC50 [1, 3] read?
A: 0.009 µM

Q: With `CC(CC(=O)NCCC(=O)O)c1ccc(C2=CCNCC2)cc1` (stereo not drawn) [3-[4-(1,2,5,6-Tetrahydropyridin-4-yl)phenyl]butyryl-β-alanine] as the compound, how does the IC50 [1, 4] read?
A: 1.3 µM

Q: With `O=C(O)CCNC(=O)CCc1ccc(C2=CCNCC2)cc1` [4-(1,2,5,6-Tetrahydropyridin-4-yl)phenyl-3-propionyl-β-alanine] as the compound, how does the IC50 [1, 4] read?
A: 1.7 µM

Q: For `CCCCS(=O)(=O)N[C@@H](CNC(=O)c1ccc(C(=O)NCCC2CCNCC2)cc1)C(=O)O`, which IC50 [1, 3] is on record?
A: 0.02 µM

Q: With `CCCCS(=O)(=O)N[C@@H](CNC(=O)CCc1ccc(C2=CCNCC2)cc1)C(=O)O` [4-(1,2,5,6-Tetrahydropyridin-4-yl)phenyl-3-propionyl-[2(S)-n-butylsulfonylamino]-β-alanine] as the compound, how does the IC50 [1, 4] read?
A: 0.022 µM

Q: Which IC50 [1, 4] does the source give for `O=C(O)CCNC(=O)CCc1cccc(CC2CCNCC2)c1` [3-[3-(Piperidin-4-ylmethyl)phenyl]propionyl-β-alanine] here?
A: 170 µM

Q: With `O=C(O)CCNC(=O)c1cc(C(=O)NCCC2CCNCC2)ccn1` as the compound, how does the IC50 [1, 3] read?
A: 1.1 µM

— patent US5648368A, “Fibrinogen receptor antagonists” (Merck & Co., Inc., priority 1995, dated 1997)
